Measured values: doi:10.1101/2024.08.19.608619, “Discovery of potent SARS-CoV-2 nsp3 macrodomain inhibitors uncovers lack of translation to cellular antiviral response” (bioRxiv, 2024)
Where two headings read alike, the source gives them in different places.

Legend:
Experiment in all cases: biochemical
Design in all cases: In vitro kinase panel profiling, per cent remaining kinase activity at 10 uM
AMPKα1(h) = molecular target: T1, AMPKα1(h) (Homo sapiens, UniProt Q13131); settings: atp_concentration=45, read-out: % of control remaining
T1 construct: gene PRKAA1
T1 sequence (Q13131 whole entry): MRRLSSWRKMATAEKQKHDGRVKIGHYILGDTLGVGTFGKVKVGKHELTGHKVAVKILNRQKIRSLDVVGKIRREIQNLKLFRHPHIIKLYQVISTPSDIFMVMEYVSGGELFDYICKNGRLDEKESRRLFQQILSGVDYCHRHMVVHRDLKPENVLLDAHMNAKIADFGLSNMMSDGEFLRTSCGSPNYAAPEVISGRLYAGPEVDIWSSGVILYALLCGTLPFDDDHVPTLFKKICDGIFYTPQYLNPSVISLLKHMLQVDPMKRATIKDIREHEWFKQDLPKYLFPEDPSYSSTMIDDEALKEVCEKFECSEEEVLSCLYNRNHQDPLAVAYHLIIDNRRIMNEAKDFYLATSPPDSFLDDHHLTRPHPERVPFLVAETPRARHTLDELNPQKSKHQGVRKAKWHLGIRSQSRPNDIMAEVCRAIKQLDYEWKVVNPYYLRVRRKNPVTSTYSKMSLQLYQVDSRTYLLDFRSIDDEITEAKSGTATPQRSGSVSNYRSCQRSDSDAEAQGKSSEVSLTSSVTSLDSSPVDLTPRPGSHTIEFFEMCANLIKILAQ
T1 sequence (P54619 whole entry partner): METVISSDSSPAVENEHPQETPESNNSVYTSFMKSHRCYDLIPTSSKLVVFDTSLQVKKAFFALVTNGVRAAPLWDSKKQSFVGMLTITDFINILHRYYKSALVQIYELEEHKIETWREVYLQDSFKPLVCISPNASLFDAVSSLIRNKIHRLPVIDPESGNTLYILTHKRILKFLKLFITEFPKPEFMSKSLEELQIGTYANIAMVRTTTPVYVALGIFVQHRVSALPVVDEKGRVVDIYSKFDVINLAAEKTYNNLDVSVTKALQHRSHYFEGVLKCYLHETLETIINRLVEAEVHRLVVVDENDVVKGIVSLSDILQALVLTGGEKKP
T1 sequence (Q9Y478 whole entry partner): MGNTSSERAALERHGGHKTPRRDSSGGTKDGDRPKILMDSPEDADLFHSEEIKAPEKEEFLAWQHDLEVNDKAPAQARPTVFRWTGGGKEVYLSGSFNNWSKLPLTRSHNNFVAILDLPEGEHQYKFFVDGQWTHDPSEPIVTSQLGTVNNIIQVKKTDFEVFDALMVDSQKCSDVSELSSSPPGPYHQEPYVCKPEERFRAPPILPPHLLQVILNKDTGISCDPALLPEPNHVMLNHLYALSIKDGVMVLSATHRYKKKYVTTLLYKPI
Text: (§1) We derisk potential for off-target activity by profiling the compound in a CEREP panel, a standard secondary pharmacology assessment, as well as a kinase panel to derisk a potential hinge-binding motif in our leads, and a PARP panel to derisk activity against human […]. Reassuringly, the compounds are selective, with the only off-targets being moderate human CHRM2 and KOR receptors activity associated with ASAP-0011198.

CDK7/cyclinH/MAT1(h) = CDK7/cyclinH/MAT1(h) (Homo sapiens, UniProt P50613); settings: atp_concentration=90, read-out: % of control remaining
Text: as §1

PAK2(h) = PAK2(h) (Homo sapiens, UniProt Q13177); settings: atp_concentration=90, read-out: % of control remaining
Chain of PAK2(h) (Q13177 whole entry): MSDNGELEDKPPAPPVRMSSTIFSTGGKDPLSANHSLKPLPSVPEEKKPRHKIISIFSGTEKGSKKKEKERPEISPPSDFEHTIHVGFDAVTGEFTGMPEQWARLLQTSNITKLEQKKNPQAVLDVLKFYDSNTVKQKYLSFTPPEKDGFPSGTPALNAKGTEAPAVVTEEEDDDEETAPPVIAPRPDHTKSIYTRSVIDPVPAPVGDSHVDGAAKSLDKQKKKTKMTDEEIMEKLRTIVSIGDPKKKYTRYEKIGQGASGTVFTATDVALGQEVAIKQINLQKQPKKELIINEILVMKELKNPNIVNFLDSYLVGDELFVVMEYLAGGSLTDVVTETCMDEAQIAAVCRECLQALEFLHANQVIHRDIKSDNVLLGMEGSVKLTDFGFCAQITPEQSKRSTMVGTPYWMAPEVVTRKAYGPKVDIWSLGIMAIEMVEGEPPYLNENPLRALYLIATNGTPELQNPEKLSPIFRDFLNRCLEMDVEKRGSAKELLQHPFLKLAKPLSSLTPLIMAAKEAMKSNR
Text: as §1

EphA5(h) = EphA5(h) (Homo sapiens, UniProt P54756); settings: atp_concentration=10, read-out: % of control remaining
Chain of EphA5(h) (P54756 whole entry): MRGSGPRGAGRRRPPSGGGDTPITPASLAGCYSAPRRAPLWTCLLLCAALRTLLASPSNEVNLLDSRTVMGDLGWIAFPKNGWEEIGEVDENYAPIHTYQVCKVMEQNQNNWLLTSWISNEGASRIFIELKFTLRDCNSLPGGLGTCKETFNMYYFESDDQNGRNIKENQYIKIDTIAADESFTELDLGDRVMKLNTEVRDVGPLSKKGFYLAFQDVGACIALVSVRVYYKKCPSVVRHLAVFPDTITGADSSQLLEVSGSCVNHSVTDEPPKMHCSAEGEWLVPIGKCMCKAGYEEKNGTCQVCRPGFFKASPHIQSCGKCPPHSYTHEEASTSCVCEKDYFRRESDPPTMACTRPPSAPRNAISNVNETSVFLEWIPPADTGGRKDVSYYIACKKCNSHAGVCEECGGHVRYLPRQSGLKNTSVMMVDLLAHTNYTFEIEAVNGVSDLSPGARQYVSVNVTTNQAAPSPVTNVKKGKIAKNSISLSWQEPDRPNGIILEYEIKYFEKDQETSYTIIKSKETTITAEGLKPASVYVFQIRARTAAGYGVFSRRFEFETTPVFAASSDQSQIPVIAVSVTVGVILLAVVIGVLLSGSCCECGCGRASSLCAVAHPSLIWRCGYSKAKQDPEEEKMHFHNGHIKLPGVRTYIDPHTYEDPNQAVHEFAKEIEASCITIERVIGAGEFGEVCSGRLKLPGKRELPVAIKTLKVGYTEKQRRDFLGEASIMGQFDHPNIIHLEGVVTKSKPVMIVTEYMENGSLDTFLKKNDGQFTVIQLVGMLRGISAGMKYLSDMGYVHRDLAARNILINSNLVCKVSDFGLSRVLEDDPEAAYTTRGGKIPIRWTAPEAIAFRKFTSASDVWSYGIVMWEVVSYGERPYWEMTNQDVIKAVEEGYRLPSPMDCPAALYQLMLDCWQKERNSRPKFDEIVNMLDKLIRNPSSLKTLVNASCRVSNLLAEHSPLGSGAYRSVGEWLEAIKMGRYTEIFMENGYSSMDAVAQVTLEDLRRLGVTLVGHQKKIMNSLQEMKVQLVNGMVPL
Text: as §1

Rsk1(h) = molecular target: T2, Rsk1(h) (Homo sapiens, UniProt Q15418); settings: atp_concentration=45, read-out: % of control remaining
T2 construct: gene RPS6KA1
T2 sequence (Q15418 whole entry): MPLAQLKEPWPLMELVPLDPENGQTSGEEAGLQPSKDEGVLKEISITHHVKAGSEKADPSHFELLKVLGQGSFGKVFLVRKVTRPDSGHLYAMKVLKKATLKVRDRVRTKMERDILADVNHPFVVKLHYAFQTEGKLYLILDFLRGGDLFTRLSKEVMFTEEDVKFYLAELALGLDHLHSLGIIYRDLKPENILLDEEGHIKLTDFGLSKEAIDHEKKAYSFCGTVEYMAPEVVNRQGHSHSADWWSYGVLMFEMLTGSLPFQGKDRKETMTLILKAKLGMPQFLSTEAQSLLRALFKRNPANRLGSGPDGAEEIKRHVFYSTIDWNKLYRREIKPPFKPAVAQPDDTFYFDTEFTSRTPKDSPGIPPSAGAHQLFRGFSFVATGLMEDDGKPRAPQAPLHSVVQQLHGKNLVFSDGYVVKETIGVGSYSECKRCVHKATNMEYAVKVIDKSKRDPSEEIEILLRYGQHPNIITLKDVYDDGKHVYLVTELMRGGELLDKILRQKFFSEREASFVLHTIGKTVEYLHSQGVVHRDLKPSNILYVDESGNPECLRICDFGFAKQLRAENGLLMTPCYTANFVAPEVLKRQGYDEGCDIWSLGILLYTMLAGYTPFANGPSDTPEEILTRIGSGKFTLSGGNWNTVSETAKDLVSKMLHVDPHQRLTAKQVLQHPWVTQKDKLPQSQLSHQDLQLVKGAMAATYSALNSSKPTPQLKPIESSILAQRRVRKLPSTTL
Text: as §1

JAK2(h) = JAK2(h) (Homo sapiens, UniProt O60674); settings: atp_concentration=45, read-out: % of control remaining
Text: as §1

Fyn(h) = Fyn(h) (Homo sapiens, UniProt P06241); settings: atp_concentration=70, read-out: % of control remaining
Chain of Fyn(h) (P06241 whole entry): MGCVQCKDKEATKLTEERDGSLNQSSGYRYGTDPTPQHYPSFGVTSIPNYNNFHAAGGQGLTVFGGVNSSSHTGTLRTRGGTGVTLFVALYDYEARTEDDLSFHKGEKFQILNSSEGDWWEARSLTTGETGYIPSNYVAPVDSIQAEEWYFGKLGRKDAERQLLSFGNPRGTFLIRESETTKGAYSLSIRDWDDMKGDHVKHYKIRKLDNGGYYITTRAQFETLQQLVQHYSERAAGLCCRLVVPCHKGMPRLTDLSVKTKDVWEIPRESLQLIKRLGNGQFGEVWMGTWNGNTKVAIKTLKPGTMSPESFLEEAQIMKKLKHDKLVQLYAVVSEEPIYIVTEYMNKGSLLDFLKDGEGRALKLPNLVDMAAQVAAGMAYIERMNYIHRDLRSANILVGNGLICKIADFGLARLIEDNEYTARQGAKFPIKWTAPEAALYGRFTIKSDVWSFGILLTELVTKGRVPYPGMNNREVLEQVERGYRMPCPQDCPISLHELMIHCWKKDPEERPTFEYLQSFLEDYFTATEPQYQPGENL
Text: as §1

Mnk2(h) = molecular target: T3, Mnk2(h) (Homo sapiens, UniProt Q9HBH9); settings: atp_concentration=120, read-out: % of control remaining
T3 construct: gene MKNK2
T3 sequence (Q9HBH9 whole entry): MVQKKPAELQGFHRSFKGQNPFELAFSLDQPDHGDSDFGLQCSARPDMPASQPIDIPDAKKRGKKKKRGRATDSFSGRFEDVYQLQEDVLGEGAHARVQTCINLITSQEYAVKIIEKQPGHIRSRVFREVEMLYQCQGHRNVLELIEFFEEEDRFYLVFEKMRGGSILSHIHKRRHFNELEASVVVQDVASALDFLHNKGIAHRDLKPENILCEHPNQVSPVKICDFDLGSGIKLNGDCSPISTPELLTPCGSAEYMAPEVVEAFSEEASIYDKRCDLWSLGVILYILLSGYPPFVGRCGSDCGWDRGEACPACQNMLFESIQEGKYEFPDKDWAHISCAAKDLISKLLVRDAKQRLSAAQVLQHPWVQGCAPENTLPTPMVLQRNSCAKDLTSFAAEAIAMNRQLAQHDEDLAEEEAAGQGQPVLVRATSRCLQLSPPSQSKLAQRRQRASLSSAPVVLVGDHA
Text: as §1

MST1(h) = molecular target: T4, MST1(h) (Homo sapiens, UniProt Q13043); settings: atp_concentration=90, read-out: % of control remaining
T4 construct: gene STK4
T4 sequence (Q13043 1-487): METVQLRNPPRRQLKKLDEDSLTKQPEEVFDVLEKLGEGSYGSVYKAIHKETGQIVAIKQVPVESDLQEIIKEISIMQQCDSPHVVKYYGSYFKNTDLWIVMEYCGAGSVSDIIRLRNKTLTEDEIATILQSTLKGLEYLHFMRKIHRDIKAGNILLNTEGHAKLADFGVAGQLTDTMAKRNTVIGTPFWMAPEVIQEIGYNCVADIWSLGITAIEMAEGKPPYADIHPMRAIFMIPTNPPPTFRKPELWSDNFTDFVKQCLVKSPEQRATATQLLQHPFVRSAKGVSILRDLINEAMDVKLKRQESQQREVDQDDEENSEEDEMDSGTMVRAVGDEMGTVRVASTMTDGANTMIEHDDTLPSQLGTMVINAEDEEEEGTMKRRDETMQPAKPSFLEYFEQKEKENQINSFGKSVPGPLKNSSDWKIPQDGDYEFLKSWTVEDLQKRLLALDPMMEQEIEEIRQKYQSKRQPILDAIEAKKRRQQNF
Text: as §1

PRAK(h) = molecular target: T5, PRAK(h) (Homo sapiens, UniProt Q8IW41); settings: atp_concentration=15, read-out: % of control remaining
T5 construct: gene MAPKAPK5
T5 sequence (Q8IW41 1-473): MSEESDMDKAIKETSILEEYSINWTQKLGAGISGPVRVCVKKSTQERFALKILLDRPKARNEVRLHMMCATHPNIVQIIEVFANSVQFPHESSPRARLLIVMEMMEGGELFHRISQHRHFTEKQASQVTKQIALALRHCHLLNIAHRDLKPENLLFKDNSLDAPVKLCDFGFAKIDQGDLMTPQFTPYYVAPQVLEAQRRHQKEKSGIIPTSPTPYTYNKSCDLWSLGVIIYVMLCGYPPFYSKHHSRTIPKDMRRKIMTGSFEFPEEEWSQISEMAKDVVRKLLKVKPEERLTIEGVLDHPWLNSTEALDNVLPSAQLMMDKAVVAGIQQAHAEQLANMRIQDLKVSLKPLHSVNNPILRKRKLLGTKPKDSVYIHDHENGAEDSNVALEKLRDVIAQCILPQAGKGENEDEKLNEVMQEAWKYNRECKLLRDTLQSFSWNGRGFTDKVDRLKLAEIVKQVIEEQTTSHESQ
Text: as §1

KDR(h) = KDR(h) (Homo sapiens, UniProt P35968); settings: atp_concentration=90, read-out: % of control remaining
Text: as §1

Aurora-A(h) = molecular target: T6, Aurora-A(h) (Homo sapiens, UniProt O14965); settings: atp_concentration=15, read-out: % of control remaining
T6 construct: gene AURKA
T6 sequence (O14965 1-403): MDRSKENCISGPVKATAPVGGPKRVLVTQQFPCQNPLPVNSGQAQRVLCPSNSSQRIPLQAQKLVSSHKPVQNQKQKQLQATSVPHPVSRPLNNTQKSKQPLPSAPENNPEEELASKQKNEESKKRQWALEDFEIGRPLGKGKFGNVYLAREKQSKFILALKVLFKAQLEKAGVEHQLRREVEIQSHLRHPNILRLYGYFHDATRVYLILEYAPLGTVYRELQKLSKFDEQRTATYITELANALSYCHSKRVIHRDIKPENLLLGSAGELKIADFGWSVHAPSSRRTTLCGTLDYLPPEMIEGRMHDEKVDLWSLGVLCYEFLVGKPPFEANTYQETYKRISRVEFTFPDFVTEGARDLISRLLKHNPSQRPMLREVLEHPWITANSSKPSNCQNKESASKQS
Text: as §1

`C[C@H](C(=O)O)[C@@H](NC(=O)c1ncnc2[nH]ccc12)c1ccc(Br)cc1` [ASAP-0014722] showed a remaining activity at 10 µM (AMPKα1(h); batch_name=ASAP-0014722-002) of 93%, a remaining activity at 10 µM (CDK7/cyclinH/MAT1(h); batch_name=ASAP-0014722-002) of 99% and a remaining activity at 10 µM (PAK2(h); batch_name=ASAP-0014722-002) of 95%. It also gave a remaining activity at 10 µM (EphA5(h); batch_name=ASAP-0014722-002) of 99%, a remaining activity at 10 µM (Rsk1(h); batch_name=ASAP-0014722-002) of 88% and a remaining activity at 10 µM (JAK2(h); batch_name=ASAP-0014722-002) of 99%. For the same compound, the remaining activity at 10 µM (Fyn(h); batch_name=ASAP-0014722-002) was 98%, the remaining activity at 10 µM (Mnk2(h); batch_name=ASAP-0014722-002) was 110% and the remaining activity at 10 µM (MST1(h); batch_name=ASAP-0014722-002) was 121%. For the same compound, the remaining activity at 10 µM (PRAK(h); batch_name=ASAP-0014722-002) was 88%, the remaining activity at 10 µM (KDR(h); batch_name=ASAP-0014722-002) was 77% and the remaining activity at 10 µM (Aurora-A(h); batch_name=ASAP-0014722-002) was 72%.

Work on `CNCc1cc(-c2cc3c(N[C@@H](c4ccc5c(c4)S(=O)(=O)CCC5)C(C)C)ncnc3[nH]2)co1` [ASAP-0011176] yielded a remaining activity at 10 µM (AMPKα1(h); batch_name=ASAP-0011176-002) of 86%, a remaining activity at 10 µM (CDK7/cyclinH/MAT1(h); batch_name=ASAP-0011176-002) of 100% and a remaining activity at 10 µM (PAK2(h); batch_name=ASAP-0011176-002) of 94%. It also gave a remaining activity at 10 µM (EphA5(h); batch_name=ASAP-0011176-002) of 78%, a remaining activity at 10 µM (Rsk1(h); batch_name=ASAP-0011176-002) of 90% and a remaining activity at 10 µM (JAK2(h); batch_name=ASAP-0011176-002) of 114%. The remaining activity at 10 µM (Fyn(h); batch_name=ASAP-0011176-002) was 64%, the remaining activity at 10 µM (Mnk2(h); batch_name=ASAP-0011176-002) was 94% and the remaining activity at 10 µM (MST1(h); batch_name=ASAP-0011176-002) was 108%. For the same compound, the remaining activity at 10 µM (PRAK(h); batch_name=ASAP-0011176-002) was 122%, the remaining activity at 10 µM (KDR(h); batch_name=ASAP-0011176-002) was 88% and the remaining activity at 10 µM (Aurora-A(h); batch_name=ASAP-0011176-002) was 73%.

`CC(C)[C@H](Nc1ncnc2[nH]ccc12)c1ccc2c(c1)S(=O)(=O)CCC2` [ASAP-0008674] gave a remaining activity at 10 µM (AMPKα1(h); batch_name=ASAP-0008674-002) of 104%, a remaining activity at 10 µM (CDK7/cyclinH/MAT1(h); batch_name=ASAP-0008674-002) of 89% and a remaining activity at 10 µM (PAK2(h); batch_name=ASAP-0008674-002) of 102%. The remaining activity at 10 µM (EphA5(h); batch_name=ASAP-0008674-002) was 102%, the remaining activity at 10 µM (Rsk1(h); batch_name=ASAP-0008674-002) was 102% and the remaining activity at 10 µM (JAK2(h); batch_name=ASAP-0008674-002) was 99%. The remaining activity at 10 µM (Fyn(h); batch_name=ASAP-0008674-002) was 96%, the remaining activity at 10 µM (Mnk2(h); batch_name=ASAP-0008674-002) was 98% and the remaining activity at 10 µM (MST1(h); batch_name=ASAP-0008674-002) was 126%. For the same compound, the remaining activity at 10 µM (PRAK(h); batch_name=ASAP-0008674-002) was 102%, the remaining activity at 10 µM (KDR(h); batch_name=ASAP-0008674-002) was 86% and the remaining activity at 10 µM (Aurora-A(h); batch_name=ASAP-0008674-002) was 51%.

Work on `CC(C)[C@H](Nc1ncnc2[nH]c(-c3cnn(C)c3C#N)cc12)c1ccc2c(n1)OCCO2` [ASAP-0010715] yielded a remaining activity at 10 µM (AMPKα1(h); batch_name=ASAP-0010715-002) of 111%, a remaining activity at 10 µM (CDK7/cyclinH/MAT1(h); batch_name=ASAP-0010715-002) of 98% and a remaining activity at 10 µM (PAK2(h); batch_name=ASAP-0010715-002) of 99%. It also gave a remaining activity at 10 µM (EphA5(h); batch_name=ASAP-0010715-002) of 102%, a remaining activity at 10 µM (Rsk1(h); batch_name=ASAP-0010715-002) of 120% and a remaining activity at 10 µM (JAK2(h); batch_name=ASAP-0010715-002) of 115%. For the same compound, the remaining activity at 10 µM (Fyn(h); batch_name=ASAP-0010715-002) was 80%, the remaining activity at 10 µM (Mnk2(h); batch_name=ASAP-0010715-002) was 95% and the remaining activity at 10 µM (MST1(h); batch_name=ASAP-0010715-002) was 120%. For the same compound, the remaining activity at 10 µM (PRAK(h); batch_name=ASAP-0010715-002) was 84%, the remaining activity at 10 µM (KDR(h); batch_name=ASAP-0010715-002) was 76% and the remaining activity at 10 µM (Aurora-A(h); batch_name=ASAP-0010715-002) was 53%.

Compound `Cn1ncc(-c2cc3c(N[C@@H](c4ccc5c(n4)OCCO5)C(C)(C)C)ncnc3[nH]2)c1C#N` [ASAP-0011221] has a remaining activity at 10 µM (AMPKα1(h); batch_name=ASAP-0011221-002) of 109%, a remaining activity at 10 µM (CDK7/cyclinH/MAT1(h); batch_name=ASAP-0011221-002) of 108% and a remaining activity at 10 µM (PAK2(h); batch_name=ASAP-0011221-002) of 111%. The remaining activity at 10 µM (EphA5(h); batch_name=ASAP-0011221-002) was 102%, the remaining activity at 10 µM (Rsk1(h); batch_name=ASAP-0011221-002) was 136% and the remaining activity at 10 µM (JAK2(h); batch_name=ASAP-0011221-002) was 140%. It also gave a remaining activity at 10 µM (Fyn(h); batch_name=ASAP-0011221-002) of 82%, a remaining activity at 10 µM (Mnk2(h); batch_name=ASAP-0011221-002) of 100% and a remaining activity at 10 µM (MST1(h); batch_name=ASAP-0011221-002) of 115%. The remaining activity at 10 µM (PRAK(h); batch_name=ASAP-0011221-002) was 86%, the remaining activity at 10 µM (KDR(h); batch_name=ASAP-0011221-002) was 83% and the remaining activity at 10 µM (Aurora-A(h); batch_name=ASAP-0011221-002) was 95%.

With `CC(C)C(Nc1ncnc2[nH]c(C(=O)NC3CCN(C)C3)cc12)c1ccc2c(c1)S(=O)(=O)CCC2` (stereo not drawn) [ASAP-0011198] the remaining activity at 10 µM (AMPKα1(h); batch_name=ASAP-0011198-002) was 107%, the remaining activity at 10 µM (CDK7/cyclinH/MAT1(h); batch_name=ASAP-0011198-002) was 101% and the remaining activity at 10 µM (PAK2(h); batch_name=ASAP-0011198-002) was 99%. For the same compound, the remaining activity at 10 µM (EphA5(h); batch_name=ASAP-0011198-002) was 100%, the remaining activity at 10 µM (Rsk1(h); batch_name=ASAP-0011198-002) was 94% and the remaining activity at 10 µM (JAK2(h); batch_name=ASAP-0011198-002) was 106%. It also gave a remaining activity at 10 µM (Fyn(h); batch_name=ASAP-0011198-002) of 107%, a remaining activity at 10 µM (Mnk2(h); batch_name=ASAP-0011198-002) of 99% and a remaining activity at 10 µM (MST1(h); batch_name=ASAP-0011198-002) of 122%. It also gave a remaining activity at 10 µM (PRAK(h); batch_name=ASAP-0011198-002) of 111%, a remaining activity at 10 µM (KDR(h); batch_name=ASAP-0011198-002) of 96% and a remaining activity at 10 µM (Aurora-A(h); batch_name=ASAP-0011198-002) of 97%.
